The values below are quoted from earlier work in article PMC4959752, “Pharmacokinetics in Wistar Rats of 5-[(4-Carboxybutanoyl)Amino]-2-Hydroxybenzoic Acid: A Novel Synthetic Derivative of 5-Aminosalicylic Acid (5-ASA) with Possible Anti-Inflammatory Activity” (PLoS ONE, 2016).

The test system of one series is plasma protein. The conditions noted are these: comparison value; cited from earlier work.
For series [1] the following is noted: literature value; cited from earlier work.

For `Nc1ccc(O)c(C(=O)O)c1` [5-ASA, 5-aminosalicylic acid], in the series on plasma protein, the protein binding is given as 40%.

As to `CC(=O)Oc1ccccc1C(=O)O` [aspirin], in series [1], the plasma half-life was 15 min.
